Columns and labels:
velvetleaf = test: Test C postemergence; type: in vivo, Abutilon theophrasti
In short: (§1)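 Plants were kept under greenhouse conditions for 13–15 days following spray. Pre-emergent application went to soil (loam–sand), post-emergent to foliage at 1–4 leaves. Evaluation: visual, percent control against untreated checks.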

morningglory = test: Test C postemergence; type: in vivo, Ipomoea coccinea
In short: as §1

sedge, umbrella = test: Test B flooded paddy test; type: in vivo, Cyperus difformis; settings: Flood, 250 g ai/ha, 0 to 100 scale where 0 is no effect and 100 is complete control
In short: (§2)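 Evaluation is visual, against untreated controls, 13 to 15 days after treatment. Before treatment, plants reached the 2-leaf stage; pots were then flooded 3 cm deep, compound was added to the water, and that level was maintained. Ratings run 0 to 100, with 100 meaning complete control.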

chickweed = test: Test C postemergence; type: in vivo, Stellaria media
In short: as §1

galium = test: Test C postemergence; type: in vivo, Galium aparine
In short: as §1

ragweed = test: Test C postemergence; type: in vivo, Ambrosia elatior
In short: as §1

Heteranthera limosa = test: Test B flooded paddy test; type: in vivo; settings: Flood, 250 g ai/ha, 0 to 100 scale where 0 is no effect and 100 is complete control
In short: as §2

rice = test: Test B flooded paddy test; type: in vivo, Oryza sativa; settings: Flood, 250 g ai/ha, 0 to 100 scale where 0 is no effect and 100 is complete control
In short: as §2

giant foxtail = test: Test A preemergence; type: in vivo, Setaria faberii
In short: (§3)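 Visual injury scored 0–100 (100 = complete control) against untreated controls about 10 days after treatment in a greenhouse. Test chemicals, formulated with surfactant in non-phytotoxic solvent, were sprayed on soil preemergence or on 2-10 cm, one- to two-leaf plants postemergence.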

barnyardgrass [1] = test: Test A preemergence; type: in vivo, Echinochloa crus-galli
In short: as §3

wheat, winter = test: Test C postemergence; type: in vivo, Triticum aestivum
In short: as §1

lambsquarters = test: Test C postemergence; type: in vivo, Chenopodium album
In short: as §1

yellow nutsedge = test: Test C postemergence; type: in vivo, Cyperus esculentus
In short: as §1

barnyardgrass [2] = test: Test B flooded paddy test; type: in vivo, Echinochloa crus-galli; settings: Flood, 250 g ai/ha, 0 to 100 scale where 0 is no effect and 100 is complete control
In short: as §2

[3] = 16 g ai/ha, postemergence, 0 is no effect, 100 is complete control
[4] = 31 g ai/ha, postemergence, visual rating, scale 0 to 100 (0 no effect, 100 complete control), 13 to 15 days
[5] = 125 g ai/ha, postemergence, visual rating, scale 0 to 100 (0 no effect, 100 complete control)
[6] = Postemergence, 62 g ai/ha, scale 0 to 100 (0 no effect, 100 complete control), 13 to 15 days
[7] = 31 g ai/ha, 0 to 100 scale where 0 is no effect and 100 is complete control, visual, approximately 10 days

Fc1cccc(Oc2ncc(Cl)cn2)c1-n1cc(C(F)F)nn1 [Compound 141, 5-chloro-2-[2-[4-(difluoromethyl)-1H-1,2,3-triazol-1-yl]-3-fluorophenoxy]pyrimidine]
pest or weed control at 16 g/ha (velvetleaf; Abutilon theophrasti, post-emergence, 16 g ai/ha, postemergence, 0 is no effect, 100 is complete control, read-out: Plant response rating (0 to 100), Velvetleaf): 80%
pest or weed control at 125 g/ha (velvetleaf; Abutilon theophrasti, post-emergence, 125 g ai/ha, postemergence, visual rating, scale 0 to 100 (0 no effect, 100 complete control), read-out: Plant response rating, Velvetleaf): 100%
pest or weed control at 62 g/ha (velvetleaf; Abutilon theophrasti, post-emergence, Postemergence, 62 g ai/ha, scale 0 to 100 (0 no effect, 100 complete control), read-out: Plant response rating, Velvetleaf): 100%
pest or weed control at 16 g/ha (morningglory; Ipomoea, post-emergence, 16 g ai/ha, postemergence, 0 is no effect, 100 is complete control, read-out: Plant response rating (0 to 100), Morningglory): 85%
pest or weed control at 125 g/ha (morningglory; Ipomoea, post-emergence, 125 g ai/ha, postemergence, visual rating, scale 0 to 100 (0 no effect, 100 complete control), read-out: Plant response rating, Morningglory): 100%
pest or weed control at 62 g/ha (morningglory; Ipomoea, post-emergence, Postemergence, 62 g ai/ha, scale 0 to 100 (0 no effect, 100 complete control), read-out: Plant response rating, Morningglory): 95%
pest or weed control at 250 g/ha (sedge, umbrella; Cyperus difformis, read-out: Plant response rating, Sedge, Umbrella): 90%
pest or weed control at 16 g/ha (chickweed; Stellaria media, post-emergence, 16 g ai/ha, postemergence, 0 is no effect, 100 is complete control, read-out: Plant response rating (0 to 100), Chickweed): 70%
pest or weed control at 125 g/ha (chickweed; Stellaria media, post-emergence, 125 g ai/ha, postemergence, visual rating, scale 0 to 100 (0 no effect, 100 complete control), read-out: Plant response rating, Chickweed): 100%
pest or weed control at 62 g/ha (chickweed; Stellaria media, post-emergence, Postemergence, 62 g ai/ha, scale 0 to 100 (0 no effect, 100 complete control), read-out: Plant response rating, Chickweed): 95%
pest or weed control at 16 g/ha (galium; Galium, post-emergence, 16 g ai/ha, postemergence, 0 is no effect, 100 is complete control, read-out: Plant response rating (0 to 100), Galium): 90%
pest or weed control at 125 g/ha (galium; Galium, post-emergence, 125 g ai/ha, postemergence, visual rating, scale 0 to 100 (0 no effect, 100 complete control), read-out: Plant response rating, Galium): 100%
pest or weed control at 62 g/ha (galium; Galium, post-emergence, Postemergence, 62 g ai/ha, scale 0 to 100 (0 no effect, 100 complete control), read-out: Plant response rating, Galium): 98%
pest or weed control at 16 g/ha (ragweed; Ambrosia artemisiifolia, post-emergence, 16 g ai/ha, postemergence, 0 is no effect, 100 is complete control, read-out: Plant response rating (0 to 100), Ragweed): 80%
pest or weed control at 125 g/ha (ragweed; Ambrosia artemisiifolia, post-emergence, 125 g ai/ha, postemergence, visual rating, scale 0 to 100 (0 no effect, 100 complete control), read-out: Plant response rating, Ragweed): 90%
pest or weed control at 62 g/ha (ragweed; Ambrosia artemisiifolia, post-emergence, Postemergence, 62 g ai/ha, scale 0 to 100 (0 no effect, 100 complete control), read-out: Plant response rating, Ragweed): 98%
pest or weed control at 250 g/ha (Heteranthera limosa; Heteranthera limosa, read-out: Plant response rating, Ducksalad): 100%
plant injury at 250 g/ha (rice; Oryza sativa, read-out: Plant response rating, Rice): 45%
pest or weed control at 31 g/ha (giant foxtail; Setaria faberi, pre-emergence, 240 h, 31 g ai/ha, 0 to 100 scale where 0 is no effect and 100 is complete control, visual, approximately 10 days, read-out: Plant response rating, Foxtail, Giant): 100%
pest or weed control at 125 g/ha (giant foxtail; Setaria faberi, pre-emergence, 240 h, 125 g ai/ha, 0 to 100 scale where 0 is no effect and 100 is complete control, read-out: Plant response rating, Foxtail, Giant): 100%
pest or weed control at 31 g/ha (barnyardgrass [1]; Echinochloa crus-galli, pre-emergence, 240 h, 31 g ai/ha, 0 to 100 scale where 0 is no effect and 100 is complete control, visual, approximately 10 days, read-out: Plant response rating, Barnyardgrass): 90%
pest or weed control at 125 g/ha (barnyardgrass [1]; Echinochloa crus-galli, pre-emergence, 240 h, 125 g ai/ha, 0 to 100 scale where 0 is no effect and 100 is complete control, read-out: Plant response rating, Barnyardgrass): 100%
plant injury at 16 g/ha (wheat, winter; Triticum aestivum, post-emergence, 16 g ai/ha, postemergence, 0 is no effect, 100 is complete control, read-out: Plant response rating (0 to 100), Wheat): 0%
plant injury at 125 g/ha (wheat, winter; Triticum aestivum, post-emergence, 125 g ai/ha, postemergence, visual rating, scale 0 to 100 (0 no effect, 100 complete control), read-out: Plant response rating, Wheat): 25%
plant injury at 62 g/ha (wheat, winter; Triticum aestivum, post-emergence, Postemergence, 62 g ai/ha, scale 0 to 100 (0 no effect, 100 complete control), read-out: Plant response rating, Wheat): 5%
pest or weed control at 16 g/ha (lambsquarters; Chenopodium album, post-emergence, 16 g ai/ha, postemergence, 0 is no effect, 100 is complete control, read-out: Plant response rating (0 to 100), Lambsquarters): 85%
pest or weed control at 125 g/ha (lambsquarters; Chenopodium album, post-emergence, 125 g ai/ha, postemergence, visual rating, scale 0 to 100 (0 no effect, 100 complete control), read-out: Plant response rating, Lambsquarters): 100%
pest or weed control at 62 g/ha (lambsquarters; Chenopodium album, post-emergence, Postemergence, 62 g ai/ha, scale 0 to 100 (0 no effect, 100 complete control), read-out: Plant response rating, Lambsquarters): 100%
pest or weed control at 16 g/ha (yellow nutsedge; Cyperus, post-emergence, 16 g ai/ha, postemergence, 0 is no effect, 100 is complete control, read-out: Plant response rating (0 to 100), Nutsedge, Yellow): 10%
pest or weed control at 125 g/ha (yellow nutsedge; Cyperus, post-emergence, 125 g ai/ha, postemergence, visual rating, scale 0 to 100 (0 no effect, 100 complete control), read-out: Plant response rating, Nutsedge, Yellow): 15%
pest or weed control at 62 g/ha (yellow nutsedge; Cyperus, post-emergence, Postemergence, 62 g ai/ha, scale 0 to 100 (0 no effect, 100 complete control), read-out: Plant response rating, Nutsedge, Yellow): 15%
pest or weed control at 250 g/ha (barnyardgrass [2]; Echinochloa crus-galli, read-out: Plant response rating, Barnyardgrass): 100%

FCc1cccc(Oc2ncc(Cl)cn2)c1-n1cc(I)cn1 [Compound 245]
Plant response rating (0 to 100), Velvetleaf (velvetleaf; [3]): 5
Velvetleaf plant response rating (velvetleaf; [4]): 10
Plant response rating, Velvetleaf (velvetleaf; [5]): 55
Plant response rating, Velvetleaf (velvetleaf; [6]): 35
Plant response rating (0 to 100), Morningglory (morningglory; [3]): 5
Morningglory plant response rating (morningglory; [4]): 30
Plant response rating, Morningglory (morningglory; [5]): 85
Plant response rating, Morningglory (morningglory; [6]): 65
Plant response rating, Sedge, Umbrella (sedge, umbrella): 60
Plant response rating (0 to 100), Chickweed (chickweed; [3]): 5
Chickweed plant response rating (chickweed; [4]): 60
Plant response rating, Chickweed (chickweed; [5]): 100
Plant response rating, Chickweed (chickweed; [6]): 80
Plant response rating (0 to 100), Galium (galium; [3]): 60
Galium plant response rating (galium; [4]): 60
Plant response rating, Galium (galium; [5]): 85
Plant response rating, Galium (galium; [6]): 80
Plant response rating (0 to 100), Ragweed (ragweed; [3]): 35
Ragweed plant response rating (ragweed; [4]): 40
Plant response rating, Ragweed (ragweed; [5]): 60
Plant response rating, Ragweed (ragweed; [6]): 45
Plant response rating, Ducksalad (Heteranthera limosa): 75
Plant response rating, Rice (rice): 0
Plant response rating, Foxtail, Giant (giant foxtail; [7]): 60
Foxtail, Giant plant response rating (0 to 100 scale) (giant foxtail; 125 g ai/ha): 100
Plant response rating, Barnyardgrass (barnyardgrass [1]; [7]): 0
Barnyardgrass plant response rating (0 to 100 scale, 0 is no effect, 100 is complete control) (barnyardgrass [1]; 125 g ai/ha): 70
Plant response rating (0 to 100), Wheat (wheat, winter; [3]): 0
Wheat plant response rating (wheat, winter; [4]): 0
Plant response rating, Wheat (wheat, winter; [5]): 5
Plant response rating, Wheat (wheat, winter; [6]): 0
Plant response rating (0 to 100), Lambsquarters (lambsquarters; [3]): 50
Lambsquarters plant response rating (lambsquarters; [4]): 70
Plant response rating, Lambsquarters (lambsquarters; [5]): 98
Plant response rating, Lambsquarters (lambsquarters; [6]): 80
Plant response rating (0 to 100), Nutsedge, Yellow (yellow nutsedge; [3]): 5
Nutsedge, Yellow plant response rating (yellow nutsedge; [4]): 5
Plant response rating, Nutsedge, Yellow (yellow nutsedge; [5]): 10
Plant response rating, Nutsedge, Yellow (yellow nutsedge; [6]): 5
Plant response rating, Barnyardgrass (barnyardgrass [2]): 0
